Experimental data published in patent US10753947B2, “Methods for screening voltage-gated proteins” (D.E. Shaw Research, LLC, priority 2012, dated 2020).

What was measured:
[1] = tested on: KV2.1 wild-type base construct (hKv2.1-m7-c3); assay: Alpha currents (Iα) of Kv2.1 WT base construct in Xenopus oocytes, two electrode voltage-clamp; format: cell-based, human; conditions: 1 nM AgTx2, WT
Description: (§1) The coding cDNAs of KV2.1 “wild-type” (hereinafter WT) base construct (hKv2.1-m7-c3 is human Kv2.1, residues 1-858, mutated to confer AgTx2 sensitivity and to remove extracellular cysteine residues) was synthesized (Entelchon GmbH) and cloned into the high expression vector pBSTA.
Transcripted cRNA was produced using the mMessage mMachine kit (Ambion Inc.). Two to four days past injection of cRNA into stage V-VI Xenopus oocytes (NASCO) potassium currents through the alpha pore (Iα) were recorded with the two electrode voltage-clamp technique making use of a TURBO TEC-05× amplifier (npi electronic GmbH). Currents were filtered at 10 kHz and sampled at 20 kHz. The bath solution contained (in mM): NaCl 96, KCl 2, CaCl2 1, MgCl2 1 and HEPES 5 (pH 7.5). Voltage-recording and current-injecting microelectrodes were filled with 3 M KCl and pulled to have resistances between 0.2 and 1 MΩ (see Stork et al., 2007). The pClamp software package v.10.1 (Molecular Devices, Inc.) was used for data acquisition and analysis.
For recording of alpha currents (Iα), 100 ms pulses were applied from ˜60 to +60 mV in 10 mV steps at 1 Hz from a holding potential of ˜80 mV to the Kv2.1 channel constructs to measure alpha currents (Iα). Passive leak currents were subtracted online using a P/4 procedure: pClamp software generates a series of scaled-down replica sweeps of the main stimulus waveform. […]

Kv2.1 R300S (R2S) = assay: Alpha currents (Iα) of Kv2.1 R2S in Xenopus oocytes, two electrode voltage-clamp; format: cell-based, human; conditions: 1 nM AgTx2, R2S
From the text: as §1
Mutations Kv2.1 R294N (hereinafter R0N), Kv2.1 R300S (hereinafter R2S), Kv2.1 R294C/R300S (hereinafter R0C/R2S), Kv2.1 R293S/R294S (hereinafter R-1S/R0S), Kv2.1 R293S/R294C (hereinafter R-1S/R0C), Kv2.1 R293S/R294S/R300S (hereinafter R-1S/R0S/R2S), Kv2.1 R293S/R294C/R300S (hereinafter R-1S/R0C/R2S) were introduced using the QuikChange® Lightning Site-Directed Mutagenesis Kit (Stratagene) with mutagenic primers according to the manufacturer's instructions. All constructs were checked by restriction site mapping and sequencing.
Transcripted cRNA was produced using the mMessage mMachine kit (Ambion Inc.). Two to four days past injection of cRNA into stage V-VI Xenopus oocytes (NASCO) potassium currents through the alpha pore (Iα) were recorded with the two electrode voltage-clamp technique making use of a TURBO TEC-05× amplifier (npi electronic GmbH). Currents were filtered at 10 kHz and sampled at 20 kHz. The bath solution contained (in mM): NaCl 96, KCl 2, CaCl2 1, MgCl2 1 and HEPES 5 (pH 7.5). […]

Shaker = Shaker (Drosophila melanogaster, UniProt P08510, DUP563-563/L584V/Q583H); conditions: Table 5; read-out: IC50, channel Shaker; cited from earlier work
Shaker, sequence (P08510 with tags, fused parts or gaps DUP563-563/Q583H/L584V): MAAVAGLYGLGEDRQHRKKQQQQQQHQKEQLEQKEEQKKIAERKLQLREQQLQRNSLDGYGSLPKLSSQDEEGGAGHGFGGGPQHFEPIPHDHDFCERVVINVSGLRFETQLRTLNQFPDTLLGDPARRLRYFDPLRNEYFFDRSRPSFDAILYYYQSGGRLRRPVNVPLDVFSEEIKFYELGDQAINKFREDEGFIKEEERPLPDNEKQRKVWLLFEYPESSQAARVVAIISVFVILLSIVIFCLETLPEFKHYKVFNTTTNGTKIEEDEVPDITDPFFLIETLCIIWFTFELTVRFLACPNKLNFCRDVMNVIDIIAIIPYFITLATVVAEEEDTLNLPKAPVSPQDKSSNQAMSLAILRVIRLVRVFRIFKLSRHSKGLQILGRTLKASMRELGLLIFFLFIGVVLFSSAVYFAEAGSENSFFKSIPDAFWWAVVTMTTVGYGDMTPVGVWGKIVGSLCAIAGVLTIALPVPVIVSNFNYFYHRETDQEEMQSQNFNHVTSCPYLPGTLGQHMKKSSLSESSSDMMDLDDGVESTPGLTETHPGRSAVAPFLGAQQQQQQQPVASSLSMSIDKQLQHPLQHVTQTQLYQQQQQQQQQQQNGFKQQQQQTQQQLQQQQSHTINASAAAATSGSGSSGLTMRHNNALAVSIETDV

Kv2.2 = target: T1, Kv2.2 (Homo sapiens, UniProt Q92953); conditions: Table 5; read-out: IC50, channel Kv2.2; cited from earlier work
T1 sequence (Q92953 1-911): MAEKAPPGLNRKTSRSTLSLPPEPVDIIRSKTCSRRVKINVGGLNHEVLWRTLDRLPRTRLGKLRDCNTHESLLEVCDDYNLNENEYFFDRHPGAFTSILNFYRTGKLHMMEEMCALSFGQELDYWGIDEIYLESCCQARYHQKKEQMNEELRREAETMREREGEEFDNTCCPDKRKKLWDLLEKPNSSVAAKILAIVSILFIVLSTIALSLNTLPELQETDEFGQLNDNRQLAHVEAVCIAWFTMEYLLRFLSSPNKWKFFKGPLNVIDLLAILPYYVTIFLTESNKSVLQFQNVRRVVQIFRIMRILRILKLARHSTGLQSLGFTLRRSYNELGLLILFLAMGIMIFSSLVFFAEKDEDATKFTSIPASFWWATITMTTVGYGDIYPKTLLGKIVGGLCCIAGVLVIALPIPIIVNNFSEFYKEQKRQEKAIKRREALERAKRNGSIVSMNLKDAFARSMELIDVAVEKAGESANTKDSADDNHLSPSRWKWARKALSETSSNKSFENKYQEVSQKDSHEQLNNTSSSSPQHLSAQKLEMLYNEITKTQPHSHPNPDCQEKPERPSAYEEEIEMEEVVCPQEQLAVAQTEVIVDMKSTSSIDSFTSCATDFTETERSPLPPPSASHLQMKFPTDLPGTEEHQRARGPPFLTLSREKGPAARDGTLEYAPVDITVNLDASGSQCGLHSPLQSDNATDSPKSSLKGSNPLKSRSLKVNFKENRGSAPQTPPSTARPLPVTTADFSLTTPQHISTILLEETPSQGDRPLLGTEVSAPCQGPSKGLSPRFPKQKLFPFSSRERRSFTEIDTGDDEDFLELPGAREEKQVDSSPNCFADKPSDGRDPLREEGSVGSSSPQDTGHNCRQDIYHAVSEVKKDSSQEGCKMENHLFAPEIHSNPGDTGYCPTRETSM

Row | Substance | Mean inhibition of the maximal outward current at +60 mV [1] [%] | Mean inhibition of the maximal outward current at +60 mV (Kv2.1 R300S (R2S)) [%] | IC50 (Shaker) [nM] | IC50 (Kv2.2) [nM]
1 | Agitotoxin-2 (GVPINVSCTGSPQCIKPCKDAGMRFGKCMNRKCHCTPK) [AgTx2] | 66.5±2.9 | 67.8±2.8 | 0.64 | 
2 | Guangxitoxin (EGECGGFWWKCGSGKPACCPKYVCSPKWGLCNFPMP) [GxTx-1E] |  |  |  | 2.6
